The term MIC denotes the least concentration at which growth counts as inhibited. A lower MIC goes with a more susceptible organism.

In DBAASP one finds MIC data, which are given here for 4 compounds.

In brackets after ≈: the same amount, converted by molar mass. Several values for one entry are separate records, joined by “and”; a condition that tells them apart may be missing. Equal values may be shown once.

Test systems include Escherichia coli ML-35p; Saccharomyces cerevisiae; Listeria ivanovii; Escherichia coli; Escherichia coli 1; Klebsiella pneumoniae 1; Escherichia coli C600; Pseudomonas aeruginosa 1; Pseudomonas aeruginosa 2; Klebsiella pneumoniae 2; Pseudomonas aeruginosa; Vibrio parahaemolyticus; Bacillus subtilis; Proteus mirabilis; Aspicilia cinerea; Vibrio cholerae; Staphylococcus aureus; Candida albicans 1; Bacillus cereus; Candida albicans; Candida glabrata; Vibrio splendidus; Klebsiella pneumoniae; Acinetobacter baumannii; Proteus vulgaris; Enterococcus faecium; Staphylococcus aureus 1; Vibrio anguillarum.

Assay in all cases: ≥ marks a high value that may be exact or a test limit, other limits are often not marked, values filed in µg/mL are converted to µM
The test system of test [1] is Salmonella enterica subsp. enterica serovar Enteritidis.
The test system of test [2] is Acinetobacter baumannii ATCC 19606.
Test [3] has as its system Candida parapsilosis ATCC 22019.
Test [4] concerns Enterococcus faecalis ATCC 29212.
In test [5] the test system is Klebsiella pneumoniae ATCC 13883.
For test [6], the system named is Staphylococcus aureus ATCC 25923.
Test [7] relates to Pseudomonas aeruginosa ATCC 27853.
Test [8] concerns Escherichia coli ATCC 25922.
In test [9] the test system is Streptococcus pyogenes ATCC 19615.
For test [10], the system named is Staphylococcus aureus ST1065.
The subject of test [11] is Candida albicans ATCC 90028.
Test [12] has as its system Streptococcus gordonii DL1.
The subject of test [13] is Streptococcus sanguinis ATCC 10556.
For test [14], the system named is Actinomyces viscosus ATCC 15987.
Test [15] relates to Lactobacillus acidophilus ATCC 14931.
In test [16] the test system is Limosilactobacillus fermentum ATCC 9338.
Test [17] concerns Actinomyces naeslundii ATCC 12104.
In test [18] the test system is Streptococcus mutans UA159.
The test system of test [19] is Lacticaseibacillus casei ATCC 393.
In test [20] the test system is Staphylococcus aureus ATCC 33591.
The subject of test [21] is Staphylococcus aureus 209P.
For test [22], the system named is Pseudomonas aeruginosa PAO1.
In test [23] the test system is Vibrio parahaemolyticus ATCC 17802.
The subject of test [24] is Staphylococcus epidermidis.
The subject of test [25] is Acinetobacter baumannii 1.

Turning to `CC[C@H](C)[C@H](NC(=O)CNC(=O)[C@H](CO)NC(=O)[C@H](C)NC(=O)[C@@H](N)Cc1ccccc1)C(=O)N[C@@H](C)C(=O)NCC(=O)N[C@@H](CCSC)C(=O)N[C@@H](C)C(=O)NCC(=O)N[C@@H](CCCCN)C(=O)N[C@@H](CC(C)C)C(=O)N[C@@H](Cc1ccccc1)C(N)=O` [FASGIAGMAGKLF], the MIC in test [1] is no less than 200 µM; in test [2] it was greater than 200 µM; in test [3], no less than 200 µM; in test [4], greater than 200 µM; in test [5], no less than 200 µM; in test [6] it was greater than 200 µM. In addition, the MIC against Escherichia coli ML-35p was no less than 200 µM; in test [7], greater than 200 µM; in the test on Saccharomyces cerevisiae, no less than 200 µM; in [8] it was greater than 200 µM; in test [9], no less than 200 µM; in [10] it was no less than 200 µM. Also, the MIC (against Listeria ivanovii; in [11]) was no less than 200 µM each time.
Regarding `CC(C)C[C@H](NC(=O)CN)C(=O)N[C@@H](CC(C)C)C(=O)N[C@@H](Cc1c[nH]c2ccccc12)C(=O)N[C@@H](Cc1cnc[nH]1)C(=O)N[C@@H](CC(C)C)C(=O)N[C@@H](CC(C)C)C(=O)N[C@@H](Cc1cnc[nH]1)C(=O)N[C@@H](Cc1cnc[nH]1)C(=O)N[C@@H](CC(C)C)C(=O)N[C@@H](CC(C)C)C(=O)N[C@@H](Cc1cnc[nH]1)C(=O)N[C@@H](CC(C)C)C(=O)N[C@@H](CC(C)C)C(=O)N[C@@H](Cc1cnc[nH]1)C(=O)N[C@@H](Cc1cnc[nH]1)C(N)=O` [GLLWHLLHHLLHLLHH], the MIC was no less than 64.3 µM in [12]; no less than 64.3 µM in [13]; no less than 257 µM in [14]; 4.02 µM (≈ 8 µg/mL) in test [15]; 16.1 µM (≈ 32 µg/mL) in [16]; no less than 257 µM in test [17]. The values for the MIC in test [18] and in test [19] were no less than 257 µM and 4.02 µM (≈ 8 µg/mL), respectively.
Regarding `CC(C)[C@@H]1NC(=O)CNC(=O)[C@H](CCCN=C(N)N)NC(=O)[C@H](C(C)C)NC(=O)[C@@H]2CSSC[C@H](NC1=O)C(=O)N[C@@H](Cc1ccc(O)cc1)C(=O)N[C@@H](CCCN=C(N)N)C(=O)N[C@@H](CCCN=C(N)N)C(=O)N[C@H](C(=O)N[C@@H](Cc1c[nH]c3ccccc13)C(=O)O)CSSC[C@H](NC(=O)[C@H](Cc1c[nH]c3ccccc13)NC(=O)[C@@H](N)CCCN=C(N)N)C(=O)N[C@@H](C(C)C)C(=O)N[C@@H](Cc1ccc(O)cc1)C(=O)N[C@@H](C)C(=O)N2` [RWCVYACVRGVCYRRCW], the MIC against Escherichia coli was 0.5 µM and 1 µM; in the test on Escherichia coli 1, 1 µM and 0.5 µM; against Klebsiella pneumoniae 1, 1 µM and 2 µM; against Escherichia coli C600 it was 1.56 µM (≈ 3.39 µg/mL); in the test with Pseudomonas aeruginosa 1, 2 µM (≈ 4.35 µg/mL); in test [20], 0.12 µM (≈ 0.261 µg/mL). Moreover, the MIC against Pseudomonas aeruginosa 2 is 2 µM (≈ 4.35 µg/mL); in [21], 3.13 µM (≈ 6.81 µg/mL); in the test on Klebsiella pneumoniae 2, 2 µM and 4 µM; in test [22] it was 3.13 µM (≈ 6.81 µg/mL).
As for `CC[C@H](C)[C@H](NC(=O)[C@H](CCCCN)NC(=O)[C@H](CC(C)C)NC(=O)[C@H](C)NC(=O)CNC(=O)[C@H](CC(N)=O)NC(=O)[C@H](CC(C)C)NC(=O)[C@@H](NC(=O)[C@H](CCCCN)NC(=O)[C@H](CCCCN)NC(=O)[C@H](Cc1c[nH]c2ccccc12)NC(=O)[C@H](Cc1ccccc1)NC(=O)[C@H](CCCCN)NC(=O)[C@H](CCCN=C(N)N)NC(=O)[C@H](CCCN=C(N)N)NC(=O)[C@@H](N)[C@@H](C)O)C(C)C)C(=O)N[C@@H](C)C(=O)N1CCC[C@H]1C(=O)N[C@@H](Cc1ccccc1)C(=O)N[C@@H](CC(C)C)C(=O)N[C@@H](CC(C)C)C(=O)NCC(=O)O` [TRRKFWKKVLNGALKIAPFLLG], the MIC in the test with Escherichia coli 1 was found to be 7.33 µM (≈ 18.8 µg/mL); in test [23] it was 1.83 µM (≈ 4.69 µg/mL); against Pseudomonas aeruginosa, 5.19 µM (≈ 13.3 µg/mL); in the test with Vibrio parahaemolyticus, 1.83 µM (≈ 4.69 µg/mL); in the test on Bacillus subtilis it was 0.919 µM (≈ 2.35 µg/mL); against Proteus mirabilis, 1.83 µM (≈ 4.69 µg/mL). For the same compound, the MIC in test [24] came out at 7.33 µM (≈ 18.8 µg/mL); in the test with Aspicilia cinerea, 7.33 µM (≈ 18.8 µg/mL); against Vibrio cholerae, 7.33 µM (≈ 18.8 µg/mL); in [25], 7.33 µM (≈ 18.8 µg/mL); against Staphylococcus aureus, 14.7 µM (≈ 37.5 µg/mL); with Candida albicans 1, 5.19 µM (≈ 13.3 µg/mL). The MIC against Klebsiella pneumoniae 1 is no less than 78.2 µM; in test [6], 14.7 µM (≈ 37.5 µg/mL); with Bacillus cereus it was 7.33 µM (≈ 18.8 µg/mL); in test [7] it was 7.33 µM (≈ 18.8 µg/mL); against Candida albicans, 14.7 µM (≈ 37.5 µg/mL); with Candida glabrata it was 14.7 µM (≈ 37.5 µg/mL). Further, the MIC in the test on Vibrio splendidus was 1.83 µM (≈ 4.69 µg/mL); in the test with Klebsiella pneumoniae, 5.19 µM (≈ 13.3 µg/mL); with Acinetobacter baumannii it was no less than 78.2 µM; against Proteus vulgaris, no less than 78.2 µM; in the test on Enterococcus faecium, 7.33 µM (≈ 18.8 µg/mL); with Staphylococcus aureus 1 it was 5.19 µM (≈ 13.3 µg/mL). Also, in the test with Vibrio anguillarum, the MIC is 1.83 µM (≈ 4.69 µg/mL).
